In brackets after ≈: the same amount, converted by molar mass. Where two headings read alike, the source gives them in different places.
What was measured:
[1] = test system: Bacillus subtilis ATCC 6633; assay: MIC, antibacterial activity (agar culture); format: cell-based; conditions: ATCC6633, 37° C., 18-20 hours, Mueller-Hinton agar, read-out: Minimum inhibitory concentration MIC
[2] = test system: Staphylococcus aureus FDA 209P; assay: MIC, antibacterial activity (agar culture); format: cell-based; conditions: FDA209P, 37° C., 18-20 hours, Mueller-Hinton agar, read-out: Minimum inhibitory concentration MIC
[3] = test system: Staphylococcus aureus TERAGIMA; assay: MIC, antibacterial activity (agar culture); format: cell-based; conditions: 37° C., 18-20 hours, Mueller-Hinton agar, read-out: Minimum inhibitory concentration MIC
[4] = test system: Staphylococcus aureus Smith; assay: MIC, antibacterial activity (agar culture); format: cell-based; conditions: 37° C., 18-20 hours, Mueller-Hinton agar, read-out: Minimum inhibitory concentration MIC
[5] = test system: Staphylococcus epidermidis ATCC 12228; assay: MIC, antibacterial activity (agar culture); format: cell-based; conditions: ATCC12228, 37° C., 18-20 hours, Mueller-Hinton agar, read-out: Minimum inhibitory concentration MIC
Sarcina lutea ATCC 9341 = assay: MIC, antibacterial activity (agar culture); format: cell-based; conditions: Micrococcus luteus, ATCC9341, 37° C., 18-20 hours, Mueller-Hinton agar, read-out: Minimum inhibitory concentration MIC
[6] = test system: Streptococcus faecalis IFO 12964; assay: MIC, antibacterial activity (agar culture); format: cell-based; conditions: Enterococcus faecalis, IFO12964, 37° C., 18-20 hours, Mueller-Hinton agar, read-out: Minimum inhibitory concentration MIC
[7] = test system: Micrococcus lysodeikticus IFO 3333; assay: MIC, antibacterial activity (agar culture); format: cell-based; conditions: Micrococcus luteus, IFO3333, 37° C., 18-20 hours, Mueller-Hinton agar, read-out: Minimum inhibitory concentration MIC
Escherichia coli 0-1 = assay: MIC, antibacterial activity (agar culture); format: cell-based; conditions: 01, 37° C., 18-20 hours, Mueller-Hinton agar, read-out: Minimum inhibitory concentration MIC
Salmonella typhi TD = assay: MIC, antibacterial activity (agar culture); format: cell-based; conditions: Salmonella enterica, read-out: Minimum inhibitory concentration MIC
Shigella flexneri 2b = assay: MIC, antibacterial activity (agar culture); format: cell-based; conditions: 37° C., 18-20 hours, Mueller-Hinton agar, read-out: Minimum inhibitory concentration MIC
[8] = test system: Pseudomonas aeruginosa IFO 13736; assay: MIC, antibacterial activity (agar culture); format: cell-based; conditions: IFO13736, 37° C., 18-20 hours, Mueller-Hinton agar, read-out: Minimum inhibitory concentration MIC
[9] = test system: Klebsiella pneumoniae ATCC 10031; assay: MIC, antibacterial activity (agar culture); format: cell-based; conditions: ATCC10031, 37° C., 18-20 hours, Mueller-Hinton agar, read-out: Minimum inhibitory concentration MIC
Proteus vulgaris OXK = assay: MIC, antibacterial activity (agar culture); format: cell-based; conditions: 37° C., 18-20 hours, Mueller-Hinton agar, read-out: Minimum inhibitory concentration MIC
Seratia marcescens NHL = assay: MIC, antibacterial activity (agar culture); format: cell-based; conditions: 37° C., 18-20 hours, Mueller-Hinton agar, read-out: Minimum inhibitory concentration MIC
[10] = test system: Candida albicans NHL 4019; assay: MIC, yeasts and molds (agar culture); format: cell-based; conditions: NHL4019, 28° C., 120 hours, glucose-peptone agar, read-out: Minimum inhibitory concentration MIC
Saccharomyces ruxii 6507 = assay: MIC, yeasts and molds (agar culture); format: cell-based; conditions: 28° C., 120 hours, glucose-peptone agar, read-out: Minimum inhibitory concentration MIC
[11] = test system: Aspergillus niger ATCC 9642; assay: MIC, yeasts and molds (agar culture); format: cell-based; conditions: ATCC9642, 28° C., 120 hours, glucose-peptone agar, read-out: Minimum inhibitory concentration MIC
[12] = test system: Aspergillus oryzae IFM 4014; assay: MIC, yeasts and molds (agar culture); format: cell-based; conditions: IFM4014, 28° C., 120 hours, glucose-peptone agar, read-out: Minimum inhibitory concentration MIC
[13] = test system: Penicillium chrysogenum ATCC 6010; assay: MIC, yeasts and molds (agar culture); format: cell-based; conditions: ATCC6010, 28° C., 120 hours, glucose-peptone agar, read-out: Minimum inhibitory concentration MIC
[14] = test system: Trichophyton mentagrophytes QM 248; assay: MIC, yeasts and molds (agar culture); format: cell-based; conditions: QM248, 28° C., 120 hours, glucose-peptone agar, read-out: Minimum inhibitory concentration MIC
[15] = test system: Microsporum gypseum IFO 8231; assay: MIC, yeasts and molds (agar culture); format: cell-based; conditions: Nannizzia gypsea, IFO8231, 28° C., 120 hours, glucose-peptone agar, read-out: Minimum inhibitory concentration MIC
[16] = test system: Gibberella fujikuroi IAM 8046; assay: MIC, yeasts and molds (agar culture); format: cell-based; conditions: Fusarium fujikuroi, IAM8046, 28° C., 120 hours, glucose-peptone agar, read-out: Minimum inhibitory concentration MIC
[17] = test system: Cladosporium fulvum IAM 5006; assay: MIC, yeasts and molds (agar culture); format: cell-based; conditions: Fulvia fulva, IAM5006, 28° C., 120 hours, glucose-peptone agar, read-out: Minimum inhibitory concentration MIC
[18] = test system: Fusarium moniliforme IAM 5062; assay: MIC, yeasts and molds (agar culture); format: cell-based; conditions: Fusarium verticillioides, IAM5062, 28° C., 120 hours, glucose-peptone agar, read-out: Minimum inhibitory concentration MIC
[19] = test system: Helmintsporium sesamum IAM 5012; assay: MIC, yeasts and molds (agar culture); format: cell-based; conditions: 28° C., 120 hours, glucose-peptone agar, read-out: Minimum inhibitory concentration MIC
[20] = test system: Piricularia oryzae IAM 5016; assay: microbe, parasite or virus in culture; format: cell-based
[21] = test system: Debaryomyces Kloecheri IFO 0015; assay: MIC, yeasts and molds (agar culture); format: cell-based; conditions: IFO0015, 28° C., 120 hours, glucose-peptone agar, read-out: Minimum inhibitory concentration MIC
Ehrlich carcinoma = assay: Antitumor effect, survival of tumor-inoculated mice; format: in vivo, ICR mice; conditions: Mus musculus, ip, 240 h, intraperitoneally, once a day for 10 days, read-out: percentage of mean survival time of test and control animals
Meth-A fibrosarcoma = assay: as above; format: in vivo, CDF1 mice; conditions: intraperitoneally, once a day for 10 days
Procedure: (§1) Antitumor effects of some Fredericamycin A derivatives against Ehrlich carcinoma, Meth-A fibrosarcoma and mouse leukemia P-388 were tested in accordance with the following procedures. Antitumor effects against Ehrlich carcinoma and Meth-A fibrosarcoma are expressed by percentage of mean survival time of test and control animals. Antitumor effects against P-388 are expressed by percentage of median survival time of test and control animals.
(§2) (ii) Meth-A fibrosarcoma and mouse leukemia P-388:
(§3) 1×10^6 tumor cells were inoculated to CDF1 mice (.male., Charles River Japan Inc.) intraperitoneally. Each tested compound was given intraperitoneally once a day for 10 days from 1 day after tumor inoculation.

mouse leukemia P-388 = assay: as above; format: in vivo, CDF1 mice; conditions: intraperitoneally, once a day for 10 days
Procedure: as §1, §2, §3

various microorganisms [22] = assay: Antibacterial activities against the tested microorganisms (general statement); format: cell-based; conditions: for each of the tested microorganism (Table 1)
Procedure: It should be noted that the MIC of Fredericamycin A was 100 μg/ml or more for each of the tested microorganism.
Culture conditions for the test microorganisms:
Inoculum size: 1×10^6 cells/ml. In the case of bacteria, each bacterium was cultured at 37° C. for 18-20 hours on a Mueller-Hinton agar (product of Difco Corp.). In the case of yeasts and molds, each microorganism was cultured at 28° C. for 120 hours on a glucose-peptone agar.

physchem = format: physicochemical; conditions: 10 μg/ml in dimethylsulfoxide/physiological saline
Procedure: The stability of some Fredericamycin A derivatives and Fredericamycin A in their aqueous solutions were tested in accordance with the following procedures.
The test compounds were individually dissolved in dimethylsulfoxide, followed by dilution of the resulting solutions with physiological saline to adjust the final concentrations of the test compounds and Fredericamycin to 10 μg/ml respectively. The thus-prepared test solutions were then subjected to high performance liquid chromatography after predetermined time intervals to measure the percentage remainders of the test compounds.

various microorganisms [23] = conditions: prior art statement; cited from earlier work
[24] = prior art statement; cited from earlier work

C/C=C/C=C/c1cc2cc3c(c(O)c2c(=O)[nH]1)C1(CC3)C(=O)c2c(OC(C)=O)c3c(c(OC(C)=O)c2C1=O)C(=O)C(OC)=CC3=O (stereo not shown) [Compound 1, Fredericamycin A diacetate]
MIC [1]: 0.39 mg/L
MIC [2]: 50 mg/L
MIC [3]: 12.5 mg/L
MIC [4]: 6.25 mg/L
MIC [5]: 0.1 mg/L
MIC (Sarcina lutea ATCC 9341): 0.39 mg/L
MIC [6]: 1.56 mg/L
MIC [7]: 0.78 mg/L
MIC (Escherichia coli 0-1): > 100 mg/L
MIC (Salmonella typhi TD): > 100 mg/L
MIC (Shigella flexneri 2b): > 100 mg/L
MIC [8]: > 100 mg/L
MIC [9]: > 100 mg/L
MIC (Proteus vulgaris OXK): > 100 mg/L
MIC (Seratia marcescens NHL): > 100 mg/L
MIC [10]: > 100 mg/L
MIC (Saccharomyces ruxii 6507): 0.39 mg/L
MIC [11]: 3.12 mg/L
MIC [12]: 1.56 mg/L
MIC [13]: 0.78 mg/L
MIC [14]: 0.39 mg/L
MIC [15]: 0.39 mg/L
MIC [16]: > 100 mg/L
MIC [17]: 1.56 mg/L
MIC [18]: 50 mg/L
MIC [19]: 0.78 mg/L
MIC ([20]; 120 h; read-out: Minimum inhibitory concentration MIC): 0.05 mg/L
MIC [21]: 100 mg/L
response vs control in vivo at 0.125 mg/kg/day (Ehrlich carcinoma; 0.125 mg/kg/day): 147%
response vs control in vivo at 0.25 mg/kg/day (Ehrlich carcinoma; 0.25 mg/kg/day): 267%
response vs control in vivo at 0.5 mg/kg/day (Ehrlich carcinoma; 0.5 mg/kg/day): 295%
percentage of mean survival time of test and control animals (Meth-A fibrosarcoma; 0.25 mg/kg/day): 127%
percentage of mean survival time of test and control animals (Meth-A fibrosarcoma; 0.5 mg/kg/day): 191%
percentage of mean survival time of test and control animals (Meth-A fibrosarcoma; 1.0 mg/kg/day): 242%

CCCCCc1cc2cc3c(c(O)c2c(=O)[nH]1)C1(CC3)C(=O)c2c(OC(C)=O)c3c(c(OC(C)=O)c2C1=O)C(=O)C(OC)=CC3=O (stereo not shown) [Compound 18, diacetyltetrahydrofredericamycin A]
MIC [1]: 50 mg/L (≈ 79.7 µM)
MIC [4]: 25 mg/L (≈ 39.8 µM)
MIC [5]: 0.78 mg/L (≈ 1.24 µM)
MIC (Sarcina lutea ATCC 9341): 25 mg/L (≈ 39.8 µM)
MIC [6]: 25 mg/L (≈ 39.8 µM)
MIC [7]: 25 mg/L (≈ 39.8 µM)
MIC (Escherichia coli 0-1): > 100 mg/L
MIC [8]: > 100 mg/L
MIC [10]: > 100 mg/L
MIC (Saccharomyces ruxii 6507): > 100 mg/L
MIC [11]: > 100 mg/L
MIC [13]: > 100 mg/L
MIC [14]: > 100 mg/L
MIC ([20]; 120 h, read-out: Minimum inhibitory concentration MIC): 0.78 mg/L (≈ 1.24 µM)
MIC [21]: > 100 mg/L
response vs control in vivo at 2 mg/kg/day (Ehrlich carcinoma; 2.0 mg/kg/day): 125%
response vs control in vivo at 4 mg/kg/day (Ehrlich carcinoma; 4.0 mg/kg/day): > 188%
response vs control in vivo at 8 mg/kg/day (Ehrlich carcinoma; 8.0 mg/kg/day): > 212%
percentage of median survival time of test and control animals (mouse leukemia P-388; 2.0 mg/kg/day): 138%
percentage of median survival time of test and control animals (mouse leukemia P-388; 4.0 mg/kg/day): 142%
percentage of median survival time of test and control animals (mouse leukemia P-388; 8.0 mg/kg/day): 147%

C/C=C/C=C/c1cc2cc3c(c(O)c2c(=O)[nH]1)C1(CC3)C(=O)c2c(O)c3c(c(O)c2C1=O)C(=O)C(OC)=CC3=O (stereo not shown) [Fredericamycin A]
MIC (various microorganisms [22]): ≥ 100 mg/L
Percentage remainder (physchem; 0 hr.): 100%
remaining at 3 h (physchem; 3 hrs., read-out: Percentage remainder): 78.9%
remaining at 6 h (physchem; 6 hrs., read-out: Percentage remainder): 64%
remaining at 24 h (physchem; 24 hrs., read-out: Percentage remainder): 38.1%
remaining at 48 h (physchem; 48 hrs., read-out: Percentage remainder): 27.3%
remaining at 72 h (physchem; 72 hrs., read-out: Percentage remainder): 18.4%
antibacterial activities (various microorganisms [23]): weak
stability [24]: low

— patent publication US4584377A, “Novel Fredericamycin A derivatives” (SS Pharmaceutical Co., Ltd., priority 1983, dated 1986)
